Structures are written as SMILES. Some results are limits rather than exact numbers.

T1 sequence (Q9NZQ7 19-238 limits assumed): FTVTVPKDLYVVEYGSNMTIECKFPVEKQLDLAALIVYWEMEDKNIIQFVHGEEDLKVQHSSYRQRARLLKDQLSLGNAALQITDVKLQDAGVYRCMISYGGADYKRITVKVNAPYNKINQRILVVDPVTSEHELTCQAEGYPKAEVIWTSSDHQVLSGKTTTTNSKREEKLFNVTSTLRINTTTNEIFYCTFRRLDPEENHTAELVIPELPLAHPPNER

This assay concerns the target T1, PD-1/PD-L1 (Homo sapiens, UniProt Q9NZQ7).
T1 construct: purchased CisBio
Kind of assay: PD1-PDL1 HTRF assay. Conditions: PD-1/PD-L1 homogenous time-resolved fluorescence (HTRF) binding assay; Tag1-PDL1 5 nM, Tag2-PD1 50 nM. A digest of the protocol:
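Compound (8 concentrations) was preincubated 15 min at room temperature with Tag1-PD-L1 and Tag2-PD-1, added as 5 nM and 50 nM solutions. Eu-labelled anti-Tag1 and XL665-labelled anti-Tag2 were then added for 1 h, and the 665/620 nm ratio (×10^4; excitation 320 nm) was fitted to the Hill equation for IC50.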
On to `COc1nc(-c2cccc(-c3cccc(-c4ccn5c(-c6ccc(CNCCO)cc6)nnc5c4)c3C)c2C)ccc1CNCCO` [Example 77, 2-((4-(7-(3′-(5-(((2-hydroxyethyl)amino)methyl)-6-methoxypyridin-2-yl)-2,2′-dimethyl-[1,1′-biphenyl]-3-yl)-[1,2,4]triazolo[4,3-ai]pyridin-3-yl)benzyl)amino)ethan-1-ol], for which the half-maximal inhibitory concentration (IC50) was ≤ 10 nM.

Consider `COc1cc(-c2cccc(-c3cccc(-c4ccn5c(-c6ccc(CNCCO)cc6)nnc5c4)c3C)c2C)ccc1CNCCO` [Example 78, 2-((4-(7-(4″-(((2-hydroxyethyl)amino)methyl)-3″-methoxy-2,2′-dimethyl-[1,1′:3′,1″-terphenyl]-3-yl)-[1,2,4]triazolo[4,3-α]pyridin-3-yl)benzyl)amino)ethan-1-ol], for which the IC50 is ≤ 10 nM. Next, `Cc1c(Nc2nccc3cc(CN4CC[C@@H](O)C4)cnc23)cccc1-c1cccc(-c2ccn3c(-c4ccc(CNC[C@@H]5CCC(=O)N5)cc4)nnc3c2)c1C` [Example 79, (S)-5-(((4-(7-(3′-((3-(((R)-3-hydroxypyrrolidin-1-yl)methyl)-1,7-naphthyridin-8-yl)amino)-2,2′-dimethyl-[1,1′-biphenyl]-3-yl)-[1,2,4]triazolo[4,3-a]pyridin-3-yl)benzyl)amino)methyl)pyrrolidin-2-one]: ≤ 10 nM; `Cc1c(Nc2nccc3cc(CN4CC[C@@H](O)C4)cnc23)cccc1-c1cccc(-c2ccn3c(-c4ccc(CN5CCC[C@@H]5C(=O)O)cc4)nnc3c2)c1C` [Example 80, (4-(7-(3′-((3-(((R)-3-hydroxypyrrolidin-1-yl)methyl)-1,7-naphthyridin-8-yl)amino)-2,2′-dimethyl-[1,1′-biphenyl]-3-yl)-[1,2,4]triazolo[4,3-α]pyridin-3-yl)benzyl)-D-proline]: ≤ 10 nM.

For `Cc1c(Nc2nccc3cc(CN4CC[C@@H](O)C4)cnc23)cccc1-c1cccc(-c2ccn3c(-c4ccc(CNCCO)cc4)nnc3c2)c1C` [Example 81, (R)-1-((8-((3′-(3-(4-(((2-hydroxyethyl)amino)methyl)phenyl)-[1,2,4]triazolo[4,3-α]pyridin-7-yl)-2,2′-dimethyl-[1,1′-biphenyl]-3-yl)amino)-1,7-naphthyridin-3-yl)methyl)pyrrolidin-3-ol], the IC50 is ≤ 10 nM. For `Cc1c(Nc2nccc3cc(CNCCO)cnc23)cccc1-c1cccc(-c2ccn3c(-c4ccc(CNCCO)cc4)nnc3c2)c1C` [Example 84, 2-((4-(7-(3′-((3-(((2-hydroxyethyl)amino)methyl)-1,7-naphthyridin-8-yl)amino)-2,2′-dimethyl-[1,1′-biphenyl]-3-yl)-[1,2,4]triazolo[4,3-a]pyridin-3-yl)benzyl)amino)ethan-1-ol], the IC50 is ≤ 10 nM. With `Cc1c(-c2ccc(CNCCO)cc2)cccc1-c1cccc(-c2ccn3c(NCCO)nnc3c2)c1C` [Example 85, 2-(((3″-(3-((2-hydroxyethyl)amino)-[1,2,4]triazolo[4,3-a]pyridin-7-yl)-2′,2″-dimethyl-[1,1′:3′,1″-terphenyl]-4-yl)methyl)amino)ethan-1-ol], the IC50 was in the range of 100 to 1000 nM.

Compound `Cc1c(-c2ccc(CNCCO)cc2)cccc1-c1cccc(-c2ccn3c(CNC[C@@H]4CCC(=O)N4)nnc3c2)c1C` [Example 86, (S)-5-((((7-(4″-(((2-hydroxyethyl)amino)methyl)-2,2′-dimethyl-[1,1′:3′,1″-terphenyl]-3-yl)-[1,2,4]triazolo[4,3-a]pyridin-3-yl)methyl)amino)methyl)pyrrolidin-2-one] returned an IC50 of 10 to 100 nM. The compound `Cc1c(-c2ccc(CNCCO)cc2)cccc1-c1cccc(-c2ccn3c(CN4CC[C@@H](C(=O)O)C4)nnc3c2)c1C` [Example 87, (R)-1-((7-(4″-(((2-hydroxyethyl)amino)methyl)-2,2′-dimethyl-[1,1′:3′,1″-terphenyl]-3-yl)-[1,2,4]triazolo[4,3-a]pyridin-3-yl)methyl)pyrrolidine-3-carboxylic acid] registered an IC50 of 10 to 100 nM. For `Cc1c(-c2ccc(CNCCO)cc2)cccc1-c1cccc(-c2ccn3c(CN4CCC[C@@H]4C(=O)O)nnc3c2)c1C` [Example 88, ((7-(4″-(((2-hydroxyethyl)amino)methyl)-2,2′-dimethyl-[1,1′:3′,1″-terphenyl]-3-yl)-[1,2,4]triazolo[4,3-α]pyridin-3-yl)methyl)-D-proline], the IC50 was 10 to 100 nM. In turn, `Cc1c(-c2ccn3c(CNCCO)nnc3c2)cccc1-c1cccc(-c2ccn3c(CNCCO)nnc3c2)c1C` [Example 89, 2,2′-((((2,2′-dimethyl-[1,1′-biphenyl]-3,3′-diyl)bis([1,2,4]triazolo[4,3-a]pyridine-7,3-diyl))bis(methylene))bis(azanediyl))bis(ethan-1-ol)] gave a half-maximal inhibitory concentration (IC50) of 100 to 1000 nM. As for `Cc1c(-c2ccc(CNC[C@@H]3CCC(=O)N3)cc2)cccc1-c1cccc(-c2ccn3c(CNC[C@@H]4CCC(=O)N4)nnc3c2)c1C` [Example 90, (S)-5-((((2′,2″-dimethyl-3″-(3-(((((S)-5-oxopyrrolidin-2-yl)methyl)amino)methyl)-[1,2,4]triazolo[4,3-a]pyridin-7-yl)-[1,1′:3′,1″-terphenyl]-4-yl)methyl)amino)methyl)pyrrolidin-2-one], the concentration for half-maximal inhibition (IC50) is ≤ 10 nM. Next, `Cc1c(-c2ccc(CNCCO)cc2)cccc1-c1cccc(-c2ccn3c(CNCCO)nnc3c2)c1C` [Example 91, 2-(((7-(4″-(((2-hydroxyethyl)amino)methyl)-2,2′-dimethyl-[1,1′:3′,1″-terphenyl]-3-yl)-[1,2,4]triazolo[4,3-α]pyridin-3-yl)methyl)amino)ethan-1-ol]: 10 to 100 nM; `Cc1c(NC(=O)c2ccc(CNCCO)cn2)cccc1-c1cccc(-c2ccn3c(CNCCO)nnc3c2)c1C` [Example 92, 5-(((2-hydroxyethyl)amino)methyl)-N-(3′-(3-(((2-hydroxyethyl)amino)methyl)-[1,2,4]triazolo[4,3-a]pyridin-7-yl)-2,2′-dimethyl-[1,1′-biphenyl]-3-yl)picolinamide]: ≤ 10 nM; `Cc1c(NC(=O)c2ccc(CNCCO)cc2)cccc1-c1cccc(-c2ccn3c(CNCCO)nnc3c2)c1C` [Example 93, 4-(((2-hydroxyethyl)amino)methyl)-N-(3′-(3-(((2-hydroxyethyl)amino)methyl)-[1,2,4]triazolo[4,3-α]pyridin-7-yl)-2,2′-dimethyl-[1,1′-biphenyl]-3-yl)benzamide]: 100 to 1000 nM. Next, `COc1nc(-c2cccc(-c3cccc(-c4ccc5nnc(CNC[C@@H]6CCC(=O)N6)n5c4)c3C)c2C)cnc1CNC[C@@H]1CCC(=O)N1` [Example 94, (S)-5-((((5-(2,2′-dimethyl-3′-(3-(((((S)-5-oxopyrrolidin-2-yl)methyl)amino)methyl)-[1,2,4]triazolo[4,3-a]pyridin-6-yl)-[1,1′-biphenyl]-3-yl)-3-methoxypyrazin-2-yl)methyl)amino)methyl)pyrrolidin-2-one]: ≤ 10 nM; `Cc1c(NC(=O)c2ccc(CNCCO)cn2)cccc1-c1cccc(-c2ccn3c(CNC[C@@H]4CCC(=O)N4)nnc3c2)c1C` [Example 95, (S)—N-(2,2′-dimethyl-3′-(3-((((5-oxopyrrolidin-2-yl)methyl)amino)methyl)-[1,2,4]triazolo[4,3-a]pyridin-7-yl)-[1,1′-biphenyl]-3-yl)-5-(((2-hydroxyethyl)amino)methyl)picolinamide]: ≤ 10 nM; `OCCNCc1ccc(-c2cccc(-c3cccc(-c4ccn5c(CNCCO)nnc5c4)c3Cl)c2Cl)cc1` [Example 96, 2-(((2′,2″-dichloro-3″-(3-(((2-hydroxyethyl)amino)methyl)-[1,2,4]triazolo[4,3-a]pyridin-7-yl)-[1,1′:3′,1″-terphenyl]-4-yl)methyl)amino)ethan-1-ol]: ≤ 10 nM. Next, `O=C1CC[C@@H](CNCc2ccc(-c3cccc(-c4cccc(-c5ccn6c(CNC[C@@H]7CCC(=O)N7)nnc6c5)c4Cl)c3Cl)cc2)N1` [Example 97, (S)-5-((((21,2″-dichloro-3″-(3-(((((S)-5-oxopyrrolidin-2-yl)methyl)amino)methyl)-[1,2,4]triazolo[4,3-α]pyridin-7-yl)-[1,1′:3′,1″-terphenyl]-4-yl)methyl)amino)methyl)pyrrolidin-2-one]: ≤ 10 nM; `Cc1c(-c2ccc(CNCCO)cc2)cccc1-c1cccc(-c2ccn3nc(CNCCO)nc3c2)c1C` [Example 98, 2-(((7-(4″-(((2-hydroxyethyl)amino)methyl)-2,2′-dimethyl-[1,1′:3′,1″-terphenyl]-3-yl)-[1,2,4]triazolo[1,5-a]pyridin-2-yl)methyl)amino)ethan-1-ol]: 10 to 100 nM.

Take `Cc1c(-c2ccc(CNC[C@@H]3CCC(=O)N3)cc2)cccc1-c1cccc(-c2ccn3nc(CNC[C@@H]4CCC(=O)N4)nc3c2)c1C` [Example 99, (S)-5-((((21,2″-dimethyl-3″-(2-(((((S)-5-oxopyrrolidin-2-yl)methyl)amino)methyl)-[1,2,4]triazolo[1,5-a]pyridin-7-yl)-[1,1′:3′,1″-terphenyl]-4-yl)methyl)amino)methyl)pyrrolidin-2-one]: the IC50 was ≤ 10 nM.

For `Cc1c(NC(=O)c2ccc(CNCCO)cn2)cccc1-c1cccc(-c2ccn3nc(CNCCO)nc3c2)c1C` [Example 100, 5-(((2-hydroxyethyl)amino)methyl)-N-(3′-(2-(((2-hydroxyethyl)amino)methyl)-[1,2,4]triazolo[1,5-a]pyridin-7-yl)-2,2′-dimethyl-[1,1′-biphenyl]-3-yl)picolinamide], the IC50 is ≤ 10 nM. Next, `Cc1c(NC(=O)c2ccc(CNCCO)cc2)cccc1-c1cccc(-c2ccn3nc(CNCCO)nc3c2)c1C` [Example 101, 4-(((2-hydroxyethyl)amino)methyl)-N-(3′-(2-(((2-hydroxyethyl)amino)methyl)-[1,2,4]triazolo[1,5-a]pyridin-7-yl)-2,2′-dimethyl-[1,1′-biphenyl]-3-yl)benzamide]: ≤ 10 nM.

Broadly, the IC50 is the concentration that inhibits the measured activity by half. Low values mean inhibition by little substance, high ones a need for much substance.

The values above are taken from patent US20260265248A1, “NOVEL PD-L1 INHIBITORS” (AFFIRMA BIOTECH S. L., priority 2023, published 2026).
